Laboratory results from US11926596B2, “Inhibitors of Rho associated coiled-coil containing protein kinase” (KADMON CORPORATION, LLC, priority 2017, dated 2024).
Like-named read-outs stand apart in the source and are kept apart here.

What was measured:
[1] = target: T1, recombinant ROCK2 (amino acids 1-552) (Homo sapiens, UniProt O75116); assay: Z'-lyte kinase assay, ROCK2; format: biochemical
T1 construct: ROCK2 (amino acids 1-552) proteins were purchased from ThermoFisher Scientific; purchased ThermoFisher Scientific
Method: (§1) Determination of compounds ROCK inhibitory activity in vitro (Z'lyte assay): recombinant ROCK1 (amino acids 1-535) and ROCK2 (amino acids 1-552) proteins were purchased from ThermoFisher Scientific. Compounds activities were measured by Z′-lyte kinase kit (ThermoFisher Scientific) and IC50s were calculated.
(§2) Table 2, below, provides in vitro and cellular inhibition of ROCKs by compounds of the invention. Compounds activities were measured by Z′-lyte kinase kit (ThermoFisher Scientific). […] IC50s were calculated using the GraphPad Prism software with kinase activities data that were collected from points 9 serial dilution of compounds treatment. The ROCK inhibition in A7R5 cells and NIH3T3 (Acta2-Luc) cells was performed as described above.

[2] = tested on: phospho-myosin light chains (ppMlc, Thr18/Ser19) in A7R5 cells; assay: A7R5 in-cell ELISA, phospho-myosin light chain; format: cell-based, rat
Method: Determination of compounds ROCK inhibitory activity in A7R5 cells: rat aortic smooth muscle cell line A7R5 cells were maintained and treated in DMEM medium with 10% of fetal bovine serum. Cells were seeded with density of 5,000 cells/well in 96-well plates for 24 hours and subsequently treated 90 min with testing compounds. Cells were then fixed and processed according to the In-Cell ELISA Colorimetric Detection Kit manual (Thermo Scientific). Cellular phospho-myosin light chains (ppMlc, Thr18/Ser19) levels were determined after treatments of DMSO control or test compounds using the In-Cell ELISA kit. The percent inhibition rate was calculated by applying the data obtained with 1 μM (or 10 μM) compound treatment to the formula, [1-(compound/DMSO)]×100%. ppMlc data obtained with 9 points 2-fold serial dilution of compounds were applied to the nonlinear regression curve fit function of the GraphPad Prism software to calculate the In cell IC50s.
A7R5 cells were treated with 9 points 2 fold serial dilution of compounds and ppMlc (T18/S19) levels were determined in order to calculate cellular IC50s of the compounds.
Two steps of measurements were adopted for pMLC/A7R5 IC50. Percent inhibition rates were calculated with a single dose (1 μM or 10 μM) compounds treatment to screen for active compounds and then cellular IC50s were measured only in compounds that have over 50% of inhibition rates.

[3] = tested on: luciferase reporter driven by the human ACTA2 gene promoter in NIH3T3 cells; assay: NIH3T3 cells Acta2-promoter driven-luciferase assay; format: cell-based; conditions: plus TGF 1, 24 hr, read-out: NIH3T3, Acta2-luc, IC50
Method: NIH3T3 cells Acta2-promoter driven-luciferase assay: A NIH3T3 cell line stably expressing a luciferase reporter driven by the human ACTA2 gene promoter (−1000-1 bp) was established (NIH3T3-Acta2-luciferase). The cells were plated to confluence and treated with the test compounds plus TGF 1 for 24 hr. Cells were then lysed and luciferase activity was measured using the LightSwitch luciferase kit from Active Motif.

[4] = target: T2, recombinant ROCK1 (amino acids 1-535) (Homo sapiens, UniProt Q13464); assay: Z'-lyte kinase assay, ROCK1; format: biochemical
T2 construct: recombinant ROCK1 (amino acids 1-535) and ROCK2; purchased ThermoFisher Scientific
Method: as §1, §2

[5] = Rattus norvegicus, 1.5 h, A7R5 cells, 90 min, read-out: pMLC IC50 A7R5
[6] = Rattus norvegicus, A7R5 cells, ppMlc (T18/S19), 9 points 2 fold serial dilution, read-out: ppMIc IC50

T2 sequence (Q13464 1-535): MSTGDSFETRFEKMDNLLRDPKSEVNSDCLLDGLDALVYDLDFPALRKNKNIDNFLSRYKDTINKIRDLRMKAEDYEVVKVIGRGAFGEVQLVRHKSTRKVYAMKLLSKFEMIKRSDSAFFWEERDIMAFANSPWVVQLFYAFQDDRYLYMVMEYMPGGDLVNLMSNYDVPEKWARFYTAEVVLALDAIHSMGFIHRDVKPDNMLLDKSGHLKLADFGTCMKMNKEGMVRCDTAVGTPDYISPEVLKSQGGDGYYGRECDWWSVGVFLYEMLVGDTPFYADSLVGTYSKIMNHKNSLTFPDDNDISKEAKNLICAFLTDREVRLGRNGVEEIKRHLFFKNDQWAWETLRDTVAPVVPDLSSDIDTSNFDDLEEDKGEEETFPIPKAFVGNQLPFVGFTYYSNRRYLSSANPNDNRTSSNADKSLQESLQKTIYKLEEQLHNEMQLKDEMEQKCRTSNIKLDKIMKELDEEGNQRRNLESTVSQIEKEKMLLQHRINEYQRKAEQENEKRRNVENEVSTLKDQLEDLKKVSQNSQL
T1 sequence (O75116 1-552): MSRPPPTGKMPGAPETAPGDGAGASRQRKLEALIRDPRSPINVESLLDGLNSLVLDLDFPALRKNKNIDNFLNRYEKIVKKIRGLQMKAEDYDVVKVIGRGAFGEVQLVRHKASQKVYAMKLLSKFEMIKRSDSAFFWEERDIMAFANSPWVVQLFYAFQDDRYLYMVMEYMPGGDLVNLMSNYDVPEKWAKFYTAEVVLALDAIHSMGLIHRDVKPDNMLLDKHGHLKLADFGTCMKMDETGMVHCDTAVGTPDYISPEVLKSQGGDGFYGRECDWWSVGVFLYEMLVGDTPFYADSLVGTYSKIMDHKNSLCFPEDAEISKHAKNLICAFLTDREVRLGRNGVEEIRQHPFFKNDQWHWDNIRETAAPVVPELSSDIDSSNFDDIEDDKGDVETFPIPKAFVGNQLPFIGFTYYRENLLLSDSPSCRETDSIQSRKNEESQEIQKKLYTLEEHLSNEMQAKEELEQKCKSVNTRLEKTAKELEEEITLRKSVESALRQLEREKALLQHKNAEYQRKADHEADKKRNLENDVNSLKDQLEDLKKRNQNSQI

SMILES	IC50 [1] [nM]	IC50 [2, 5] [nM]	IC50 [3] [nM]	IC50 [4] [nM]	inhibition at 3 µM ([1]; read-out: ROCK2 % inh) [%]	inhibition at 3 µM ([4]; read-out: ROCK1 % inh) [%]	inhibition at 0.5 µM ([1]; read-out: ROCK2 % inh) [%]	IC50 [2, 6] [nM]	inhibition at 0.5 µM ([4]; @ 0.5 μM, read-out: ROCK1 % inh) [%]	inhibition at 1 µM ([1]; @ 1 μM, read-out: ROCK2 % inh) [%]	cellular ROCK inhibition compared with Comparative Example 2 ([2]; phosphorylation of the ROCK target pMLC in A7R5 cells)	inhibition at 10 µM ([2]; Rattus norvegicus, @ 10 μM, A7R5 cells, read-out: pMLC % inh A7R5) [%]
CN[C@H](C(=O)Nc1ccc2[nH]ncc2c1)c1cccc(OC)c1 [Example 55, (S)-N-(1H-indazol-5-yl)-2-(3-methoxyphenyl)-2-(methylamino)acetamide]	30	589	773	–	–	–	–	–	–	–	–	–
CNC(C(=O)Nc1ccc2[nH]ncc2c1)c1cccc(Cl)c1 (stereo not shown) [Example 42, 2-(3-chlorophenyl)-N-(1H-indazol-5-yl)-2-(methylamino)acetamide]	16	454	882	8.8	–	–	–	–	–	–	–	–
CNC(C(=O)Nc1ccc2[nH]ncc2c1)c1ccc(OC)cc1 (stereo not shown) [Example 24, N-(1H-indazol-5-yl)-2-(4-methoxyphenyl)-2-(methylamino)acetamide]	3.6	224	321	3.89	98.8	99	–	–	–	–	–	–
CNC(C(=O)Nc1ccc2[nH]ncc2c1)c1ccc(Oc2ccc(OC)cc2)cc1 (stereo not shown) [Example 14, N-(1H-indazol-5-yl)-2-(4-(4-methoxyphenoxy)phenyl)-2-(methylamino)acetamide]	–	207	678	32.6	–	–	100	207	–	–	–	–
CN[C@@H](C(=O)Nc1ccc2[nH]ncc2c1)c1cccc(OC)c1 [Example 54, (R)-N-(1H-indazol-5-yl)-2-(3-methoxyphenyl)-2-(methylamino)acetamide]	14	200	268	–	–	–	–	–	–	–	–	–
CNC(C(=O)Nc1ccc2[nH]ncc2c1)c1ccc(OC)c(F)c1 (stereo not shown) [Example 57, 2-(3-fluoro-4-methoxyphenyl)-N-(1H-indazol-5-yl)-2-(methylamino)acetamide]	25	339	473	–	–	–	95	–	–	–	–	–
CCNC(C(=O)Nc1ccc2[nH]ncc2c1)c1ccc(C)cc1 (stereo not shown) [Example 30, 2-(ethylamino)-N-(1H-indazol-5-yl)-2-(p-tolyl)acetamide]	13	502	960	16	98.8	99	–	–	–	–	–	–
CNC(C(=O)Nc1ccc2[nH]ncc2c1)c1cccc(F)c1 (stereo not shown) [Example 53, 2-(3-fluorophenyl)-N-(1H-indazol-5-yl)-2-(methylamino)acetamide]	41	914	1160	–	–	–	–	–	–	–	–	–
CNC(C(=O)Nc1ccc2[nH]ncc2c1)c1cccc(C)c1 (stereo not shown) [Example 52, N-(1H-indazol-5-yl)-2-(methylamino)-2-(m-tolyl)acetamide]	34	532	1510	–	–	–	–	–	–	–	–	–
CCNC(C(=O)Nc1ccc2[nH]ncc2c1)c1ccc(OC)cc1 (stereo not shown) [Example 26, 2-(ethylamino)-N-(1H-indazol-5-yl)-2-(4-methoxyphenyl)acetamide]	12	261	845	24	98.8	99	–	–	–	–	–	–
CCNC(C(=O)Nc1ccc2[nH]ncc2c1)c1cccc(F)c1 (stereo not shown) [Example 51, 2-(ethylamino)-2-(3-fluorophenyl)-N-(1H-indazol-5-yl)acetamide]	53	1660	5450	–	–	–	–	–	–	–	–	–
COc1ccc(C(NC(C)C)C(=O)Nc2ccc3[nH]ncc3c2)cc1 (stereo not shown) [Example 25, N-(1H-indazol-5-yl)-2-(isopropylamino)-2-(4-methoxyphenyl)acetamide]	9.7	633	–	10.6	98.8	99	–	–	–	–	–	–
CNC(C(=O)Nc1ccc2[nH]ncc2c1)c1ccccc1Cl (stereo not shown) [Example 47, 2-(2-chlorophenyl)-N-(1H-indazol-5-yl)-2-(methylamino)acetamide]	135	461	659	8.3	–	–	–	461	–	–	–	–
CC(C)NC(C(=O)Nc1ccc2[nH]ncc2c1)c1ccc(F)cc1 (stereo not shown) [Example 20, 2-(4-fluorophenyl)-N-(1H-indazol-5-yl)-2-(isopropylamino)acetamide]	152	2510	–	561	94.6	18.4	–	–	–	–	–	–
CC(C)NC(C(=O)Nc1ccc2[nH]ncc2c1)c1ccccc1 (stereo not shown) [Example 22, N-(1H-indazol-5-yl)-2-(isopropylamino)-2-phenylacetamide]	–	1800	–	–	96.7	94.3	–	–	–	–	–	–
CCNC(C(=O)Nc1ccc2[nH]ncc2c1)c1cccc(Cl)c1 (stereo not shown) [Example 58, 2-(3-chlorophenyl)-2-(ethylamino)-N-(1H-indazol-5-yl)acetamide]	64	722	1090	–	–	–	61	–	85	–	–	–
CNC(C(=O)Nc1ccc2[nH]ncc2c1)c1cccnc1 (stereo not shown) [Example 39, N-(1H-indazol-5-yl)-2-(methylamino)-2-(pyridin-3-yl)acetamide]	213	4200	–	250	–	–	–	–	–	–	–	–
NC(C(=O)Nc1ccc2[nH]ncc2c1)c1ccccc1F (stereo not shown) [Comp7, reference compound]	303	18400	–	166	100	100	–	–	–	–	–	–
COc1ccc(C(NC2CC2)C(=O)Nc2ccc3[nH]ncc3c2)cc1 (stereo not shown) [Example 27, 2-(cyclopropylamino)-N-(1H-indazol-5-yl)-2-(4-methoxyphenyl)acetamide]	66	2980	–	79	–	–	–	–	–	–	–	–
NC(C(=O)Nc1ccc2[nH]ncc2c1)c1cccc(F)c1 (stereo not shown) [Comp6, reference compound]	41.8	6990	–	41.3	98.8	99	–	–	–	–	–	–
CNC(C(=O)Nc1ccc2[nH]ncc2c1)c1ccc(OC(F)(F)F)cc1 (stereo not shown) [Example 56, N-(1H-indazol-5-yl)-2-(methylamino)-2-(4-(trifluoromethoxy)phenyl)acetamide]	46	546	666	–	–	–	–	–	–	–	–	–
CNC(C(=O)Nc1ccc2[nH]ncc2c1)c1ccc(F)cc1 (stereo not shown) [Example 19, 2-(4-fluorophenyl)-N-(1H-indazol-5-yl)-2-(methylamino)acetamide]	160	1600	–	173	96.6	21.4	–	–	–	–	–	–
COc1ccc(C(N)C(=O)Nc2ccc3[nH]ncc3c2)cc1 (stereo not shown) [Comp4, reference compound]	–	6160	–	–	–	95.8	–	–	–	96.5	–	–
Cc1ccc(C(NC(C)(C)C)C(=O)Nc2ccc3[nH]ncc3c2)cc1 (stereo not shown) [Example 38, 2-(tert-butylamino)-N-(1H-indazol-5-yl)-2-(p-tolyl)acetamide]	27.4	1340	–	61.4	100	100	–	–	–	–	–	–
CCNC(C(=O)Nc1ccc2[nH]ncc2c1)c1ccc(Cl)cc1 (stereo not shown) [Example 17, 2-(4-chlorophenyl)-2-(ethylamino)-N-(1H-indazol-5-yl)acetamide]	248	556	–	< 10	96.3	93.3	–	–	–	–	enhanced	–
COc1ccc(C(NC(C)(C)C)C(=O)Nc2ccc3[nH]ncc3c2)cc1 (stereo not shown) [Example 36, 2-(tert-butylamino)-N-(1H-indazol-5-yl)-2-(4-methoxyphenyl)acetamide]	9.9	766	–	24.7	98.8	99	–	–	–	–	–	–
O=C(Nc1ccc2[nH]ncc2c1)C1Cc2ccccc2CN1 (stereo not shown) [Example 4, N-(1H-indazol-5-yl)-1,2,3,4-tetrahydroisoquinoline-3-carboxamide]	> 1000	–	–	> 1000	–	–	–	–	–	–	–	18
